Data as given in patent US20020127717A1, “Preparation of replicating macrophages and use in diagnosis and therapy” (priority 2000, published 2002).

How the values were obtained:
[1] = biological target: T1, Ulex Europaeus-I Agglutimin (UEA-I) (Ulex europaeus, UniProt P22972); test: FITC-UEA-I lectin binding to acetone-fixed cells, specificity control; details: 0.2M, room temperature, 30 minutes preincubation
T1 construct: purchased Vector Laboratories, Inc
T1 sequence (P22972 1-243): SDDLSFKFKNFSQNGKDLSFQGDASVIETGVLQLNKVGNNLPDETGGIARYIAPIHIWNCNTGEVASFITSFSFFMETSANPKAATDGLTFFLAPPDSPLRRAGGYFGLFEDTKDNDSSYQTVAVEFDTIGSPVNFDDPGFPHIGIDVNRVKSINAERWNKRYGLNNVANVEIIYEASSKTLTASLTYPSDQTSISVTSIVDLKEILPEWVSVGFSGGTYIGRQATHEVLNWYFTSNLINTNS
Description: FITC-conjugated Ulex Europaeus-I Agglutimin (UEA-I) (Vector Laboratories, Inc.) was incubated with acetone-fixed cells at 37° C. for 1 hour. The specificity of UEA-I, the lectin was determined by preincubating with 0.2M […] (Sigma), at room temperature for 30 minutes.

[2] = test system: Bovine Capillary Endothelial Cells (BCE); test: DNA synthesis assay (3H-Thymidine), stimulation by growth factors, BCE; assay type: cell-based
Description: (§1) DNA Synthesis Assay: DNA synthesis was determined by culturing the cells with ^3H-Thymidine as is standard in the art. The KC isolates used in the assay were at day 21 post liver isolation. The normal endothelial cells and foreskin fibroblasts were cultured in media consisting of RPMI-1640, fetal bovine serum 20% supplemented with specific factors as described in Nakamura S and Salahuddin SZ, Science 242: 426-430,1988. KC isolates were cultured as described above. Cells were harvested between 4 hours and 18 hours culture depending on the stimulatory agent used. A stimulation index was calculated by dividing radioactivity incorporated into cells with the stimulatory agent versus cells in culture medium alone.
(§2) Cultured Cells: Human umbilical vein endothelial cells (HUV-E) were prepared as described in Nakamura et al, Science 1988. Bovine capillary endothelial cells (BCE) were a gift from Dr. Peter Biberfeld of Karolinska Institute, Stockholm, Sweden. Normal human foreskin fibroblasts (HSF) were obtained from the American Type Tissue Culture Collection (ATCC), Rockville, Md. (CRL-1635).
(§3) Various growth factors were tested for their ability to stimulate growth of the human Kupffer cell isolates (KC-3) and other cell types. KC isolates used in this experiment were grown in culture for 21 days with MCG medium.

[3] = test system: Human Foreskin Fibroblast Cells (HSF); test: DNA synthesis assay (3H-Thymidine), stimulation by growth factors, HSF; assay type: cell-based; details: HFS
Description: as §1, §2, §3

[4] = test system: Human Umbilical Vein Endothelial Cells (HUV-E); test: DNA synthesis assay (3H-Thymidine), stimulation by growth factors, HUVE; assay type: cell-based
Description: as §1, §2, §3

[5] = test system: human Kupffer cell isolates (KC-1, KC-2, KC-3); test: DNA synthesis assay (3H-Thymidine), stimulation by growth factors, Kupffer cell isolates; assay type: cell-based; set-up: key: ratio: uptake with stimulatory agent / uptake in medium alone
[6] = test system: human Kupffer cell isolates (KC-1, KC-2, KC-3); test: as above; assay type: cell-based; set-up: key to Stimulation Index of Cultured Target cells: ratio: uptake with stimulatory agent / uptake in medium alone; details: for effect on DNA synthesis of KC isolates (in words): KC isolates grown 21 days in MCG medium, summary of Table 3
Description: as §1, §3

Compound | binding of UEA-I after preincubating the lectin [1] | Stimulation Index of Cultured Target cells ([2]; HC (hydrocortisone) +) | Stimulation Index of Cultured Target cells ([2]; HC (hydrocortisone) −) | Stimulation Index of Cultured Target cells ([3]; HC (hydrocortisone) +) | Stimulation Index of Cultured Target cells ([3]; HC (hydrocortisone) −) | Stimulation Index of Cultured Target cells ([4]; HC (hydrocortisone) +) | Stimulation Index of Cultured Target cells ([4]; HC (hydrocortisone) −) | Stimulation Index of Cultured Target cells ([5]; KC-1, HC (hydrocortisone) +) | Stimulation Index of Cultured Target cells ([5]; KC-1, HC (hydrocortisone) −) | Stimulation Index of Cultured Target cells ([5]; KC-2, HC (hydrocortisone) +) | Stimulation Index of Cultured Target cells ([5]; KC-2, HC (hydrocortisone) −) | effect on DNA synthesis of KC isolates (in words) [6] | Stimulation Index of Cultured Target cells ([6]; KC-3, HC (hydrocortisone) +) | Stimulation Index of Cultured Target cells ([6]; KC-3, HC (hydrocortisone) −)
O=C(CO)[C@H](O)[C@@H](O)[C@@H](O)CO [L-fructose] | No binding was observed |  |  |  |  |  |  |  |  |  |  |  |  | 
BFGF: bFGF = Fibroblast Growth Factor β, Lot # 14765800, Boehringer Manheim |  | 2.3 | 6.2 | 1.9 | 2.2 | 15.4 | 35.4 | 0.5 | 0.8 | 0.5 | 0.6 | little to no effect | 1.2 | 1.2
EGF: epidermal growth factor |  | 2.9 | 6.8 | 1.1 | 2.8 |  | 25.4 | 0.9 | 1.2 | 0.9 | 1.1 | little to no effect | 0.6 | 1.2
PDGF |  | 1.8 | 4.4 | 1.5 | 1.4 | 20.2 | 10.0 | 1.1 | 1.2 | 1.2 | 1.4 | little to no effect | 1.1 | 1.4
TNFα |  | 1.2 |  | 0.8 |  | 1.0 |  | 0.8 |  | 0.9 |  |  | 1.2 | 
